≈ marks a conversion by molar mass, not a printed value. Read-outs that look alike come from different tables or passages of the source.

The target in test [1] is T1, MtbFtsZ wild type (Mycobacterium tuberculosis, UniProt P9WN95).
T1 construct: inferred from pET15 vector and Ni-NTA purification; made in house; host or cells: E. coli BL21 (DE3) Rosetta
T1 sequence (P9WN95 1-379): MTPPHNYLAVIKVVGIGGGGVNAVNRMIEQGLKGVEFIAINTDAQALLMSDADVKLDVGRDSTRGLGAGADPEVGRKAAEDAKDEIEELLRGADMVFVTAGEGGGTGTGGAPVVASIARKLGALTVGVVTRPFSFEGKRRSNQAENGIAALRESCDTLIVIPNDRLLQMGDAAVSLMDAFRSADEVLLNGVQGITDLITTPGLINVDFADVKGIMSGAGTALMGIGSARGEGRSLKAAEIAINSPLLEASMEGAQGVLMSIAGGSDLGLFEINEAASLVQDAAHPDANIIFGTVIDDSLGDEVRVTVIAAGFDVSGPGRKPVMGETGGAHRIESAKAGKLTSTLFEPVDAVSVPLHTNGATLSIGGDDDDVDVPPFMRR
It is filed as biochemical.

In test [2] the target is T1, MtbFtsZ wild type. It is filed as biochemical. This is another data set of the same source.
The next test has as its system bacteria. On the set-up: method as in Jaiswal et al., 2007; Bhattacharya et al., 2013. To be noted: ref Jaiswal et al., 2007; Bhattacharya et al., 2013; cited from earlier work.
Test [3] concerns Mycobacterium smegmatis mc^2 155. Nature of the test: microbe, parasite or virus in culture. It is filed as cell-based.
The next test concerns M. smegmatis mc^2 155. As to the kind of experiment: Bacterial cell length by bright field microscopy. Type of test: cell-based, Mycobacterium smegmatis.
A further test concerns the target T2, MtbFtsZ (Mycobacterium tuberculosis, UniProt P9WN95).
T2 construct: inferred from pET15 vector and Ni-NTA purification; made in house; host or cells: E. coli BL21 (DE3) Rosetta
T2 sequence (P9WN95 1-379): T1 sequence (P9WN95 1-379)
It is filed as biochemical.

Test [4] concerns Mycobacterium tuberculosis H37Rv. On the set-up: method as in Rezayan et al., 2012; Upadhyay et al., 2012. To be noted: ref Rezayan et al., 2012, Upadhyay et al.; cited from earlier work.
The subject of test [5] is FtsZ localization in M. smegmatis mc^2 155. As to the kind of experiment: FtsZ localization by immunofluorescence microscopy. Type of test: cell-based, Mycobacterium smegmatis. To be noted: late logarithmic phase cells grown with compound for 4 h. The method, then:
The effect of coumarins on the Z-ring formation of M. smegmatis was determined with immunofluoresence microscopy using anti-FtsZ antibodies (Dziedzic et al., [2010]). Late logarithmic phase cells were grown in the presence and absence of coumarins for 4 h. The cells were fixed with formaldehyde washed with phosphate buffer, and immuno-stained with polyclonal anti-FtsZ rabbit antibody (GeneTeX, USA) overnight at 4°C. Alexa fluor (488) goat anti-rabbit secondary antibody (Invitrogen, USA) was used for visualizing Z-rings. The nuclear material was visualized by using an anti-mountant containing DAPI. The cells were visualized in 63 X objective using a Carl-Zeiss fluorescence Microscope (Axio Imager 2 for Life Science Research, Germany). The images were visualized and processed using ZEN image processing software.

The mark [6] stands for this setting: Mycolicibacterium smegmatis, MC^2155, 48 h.
The mark [7] stands for this setting: Mycolicibacterium smegmatis, MC^2155, 48 h, M. smegmatis mc^2 155, MABA, 37°C, 48 h, read-out: MIC.
The mark [8] stands for this setting: M. smegmatis mc^2 155, MABA, 37°C, 48 h.

On to `CC(C)c1c(O)ccc2c1CC[C@H]1C(C)(C)CCC[C@]21C` [Totarol], for which, on MtbFtsZ wild type [1], the “inhibition of the polymerization activity of the protein” value was 74% ± 2. Also, the “inhibition of the GTPase activity of the protein” value on MtbFtsZ wild type [2] is recorded as 68% ± 3.1. The “increase of the length of bacteria” value with bacteria is listed as 5 fold.
In the case of `O=c1ccc2cc(O)c(O)cc2o1` [Esculetin], the MIC in test [3] (setting [6]) was determined as 48.2 ± 5.7 µM (≈ 8.59 µg/mL). Further, in the test with M. smegmatis mc^2 155, the “increase of bacterial length” value amounted to 4 fold and the maximum bacterial length is given as 17.85 ± 4.5 μm. In addition, the “protofilament formation (TEM)” value on MtbFtsZ is “did not allow the formation of network for a protofilament”.
As to `COc1cc2ccc(=O)oc2cc1O` [scopoletin, reference compound], the MIC in test [4] is 42 µg/mL (≈ 219 µM).
Compound `CCN(CC)c1ccc2c(C)cc(=O)oc2c1` [7-Diethylamino-4-methylcoumarin] showed an MIC in test [3] (setting [6]) of 70.2 ± 6.2 µM (≈ 16.2 µg/mL).
In the case of `CO[C@H]1/C=C/O[C@@]2(C)Oc3c(C)c(O)c4c(O)c(c(/C=N/N5CCN(C)CC5)c(O)c4c3C2=O)NC(=O)/C(C)=C\C=C\[C@H](C)[C@H](O)[C@@H](C)[C@@H](O)[C@@H](C)[C@H](OC(C)=O)[C@@H]1C` [Rifampicin, reference compound], the MIC in test [3] (setting [7]) was found to be 3.9 µM (≈ 3.21 µg/mL).
Consider `O=c1oc2c(O)c(O)cc3c(=O)oc4c(O)c(O)cc1c4c23` [Ellagic acid], for which the MIC in test [3] (setting [8]) is 50 ± 2.4 µM (≈ 15.1 µg/mL); in test [3] (M. smegmatis mc^2 155, MABA, 37°C, 48 h, listed as ellagic acid, read-out: MIC), 50 µM (≈ 15.1 µg/mL); in test [3] (setting [7]), 25 µM (≈ 7.55 µg/mL).
`CC1=CC(=O)c2c(O)cccc2C1=O` [Plumbagin]: the “increase of the length of bacteria” value in the test on bacteria is 7 fold.
`COc1ccc2cc3[n+](cc2c1OC)CCc1cc2c(cc1-3)OCO2` [Berberine]: the “inhibition of the polymerization activity of the protein” value against MtbFtsZ wild type [1] is 82% ± 1.4. Further, the “inhibition of the GTPase activity of the protein” value against MtbFtsZ wild type [2] was 75% ± 2.5.
Take `O=c1cc(O)c2ccccc2o1` [4-Hydroxycoumarin]: the MIC in test [3] (setting [7]) was found to be 150 ± 7.4 µM (≈ 24.4 µg/mL).
For the compound `O=c1ccc2ccccc2o1` [Coumarin], the MIC in test [3] (setting [7]) came out at 214 ± 8.7 µM (≈ 31.2 µg/mL).
With `Cc1cc(=O)oc2cc(O)ccc12` [4-Methylumbelliferone], the MIC in test [3] (setting [7]) was found to be 42.5 ± 2.4 µM (≈ 7.49 µg/mL).
`O=c1ccc2ccc(O)c(O)c2o1` [Daphnetin] registered an MIC in test [3] (setting [6]) of 48.2 ± 6.3 µM (≈ 8.59 µg/mL).
Take `[H]/N=C(/N)N[C@H]1[C@H](O)[C@@H](O)[C@H](O[C@@H]2O[C@@H](C)[C@](O)(C=O)[C@H]2O[C@@H]2O[C@@H](CO)[C@H](O)[C@@H](O)[C@@H]2NC)[C@@H](N/C(N)=N\[H])[C@@H]1O` [streptomycin, reference compound]: the MIC in test [3] (setting [7]) was determined as 11.2 µM (≈ 6.5 µg/mL).
For `O=c1ccc2ccc(O)cc2o1` [Umbelliferone], the MIC in test [3] (setting [6]) was 46.2 ± 3.2 µM (≈ 7.49 µg/mL); in test [4] it was 58.3 µg/mL (≈ 360 µM).
For `Cc1cc(=O)oc2cc(N(C)C)ccc12` [7-Dimethyl-4-methylcoumarin], the MIC in test [3] (setting [8]) was determined as 36.8 ± 7.1 µM (≈ 7.48 µg/mL); in test [3] (M. smegmatis mc^2 155, MABA, 37°C, 48 h, listed as 7-Dimethyl-4-methyl coumarin, read-out: MIC), 36.8 µM (≈ 7.48 µg/mL); in test [3] (setting [7]) it was 38.7 µM (≈ 7.87 µg/mL). Further, the “increase of bacterial length” value with M. smegmatis mc^2 155 (cells treated with 50 μM, versus untreated cells) was 4 fold. The compound further showed a maximum bacterial length with M. smegmatis mc^2 155 (cells treated with 50 μM, untreated 4.48 ± 1.25 μm) of 15.2 ± 3.5 μm. The “protofilament formation (TEM)” value at MtbFtsZ is “did not allow the formation of network for a protofilament”. The “FtsZ localization (immunofluorescence)” value in test [5] was “localization of MtbFtsZ was disrupted”.
For the compound `Cc1ccc2oc(=O)ccc2c1` [6-Methylcoumarin], in test [3] (setting [7]), the MIC came out at 46.8 ± 4.3 µM (≈ 7.5 µg/mL).

The record behind these values is PMC5382161 (Frontiers in Microbiology, 2017).
